This assay has as its system PC-3 cells (human prostate cancer cell line). The assay is described as follows: Cytotoxic activity, MTT cell viability assay against PC-3 cell line. The assay is classed as cell-based. As to conditions: read-out: Cytotoxcity activity IC50. As for the experimental part: Cytotoxic activity of L. adscendens aerial part fractions were tested in vitro using MTT cell viability assay as previously described. Briefly, in each well plate 100 µL of fresh culture RPMI 1640 medium without phenol red then 10 µL of the 12 mM MTT stock solution (5 mg of MTT in 1 mL of PBS) were added to each well. An 85 µL aliquot of the incubated media was replaced by 50 µL of DMSO and incubated at 37 °C for 10 min. The optical density was measured at 590 nm with the microplate reader to determine the number of viable cells and the percentage of viability was calculated as the percentage of cell survival was calculated as follows: Surviving fraction=O.D.treated cells/O.D.control cells∗100

In brackets after ≈: the same amount, converted by molar mass.

`COc1cccc2c1C(=O)c1c(O)c3c(c(O)c1C2=O)C[C@@](O)(C(=O)CO)C[C@@H]3O[C@H]1C[C@H](N)[C@H](O)[C@H](C)O1` [Doxorubicin]: the 50% inhibitory concentration (IC50) amounted to 34.9 ± 5.21 µg/mL (≈ 64.2 µM).

Values taken from paper PMC9737734, “Phytochemical investigation of Ludwigia adscendens subsp. diffusa aerial parts in context of its biological activity” (BMC Chemistry, 2022).
